The results in this text go back to paper PMC6887851, “A Chemical-Intervention Strategy To Circumvent Peptide Hydrolysis by D-Stereoselective Peptidases” (Journal of Medicinal Chemistry, 2019).

Where a SMILES comes first, the peptide text is derived from it. [ ]: non-standard residue; d: D form. The star is where a group is joined. dDab = NCC[C@@H](N)C(=O)O; Octanoyl = CCCCCCCC(=O)*; Dab = NCC[C@H](N)C(=O)O

One data set concerns S. aureus NCTC 10788. The data set is classed as cell-based, Staphylococcus aureus. The following applies: NCTC 10788, 18 h. The method, then:
(§1) Minimum inhibitory concentrations (MICs) were determined according to Clinical and Standards Laboratory Institute (CLSI) guidelines. Briefly, peptides were dissolved in Muller–Hinton broth (MHB) and serial dilutions made across a 96-well plate. Each well was inoculated with a suspension of the required bacterial strain to reach a final inoculum of 5 × 10^5 colony forming units per mL. The MIC was taken as the lowest concentration with no visible (cloudy suspension) growth after 18 h. The antimicrobial activity of each peptide was determined in duplicate in three independent experiments and found to be consistent across all experiments.

In the next data set the test system is D-peptidase BogQ. As to the kind of experiment: Peptide hydrolysis assay with BogQ (UPLC–MS cleavage ratio). The data set is classed as in vitro ADME. The following applies: BogQ 20 nM, substrate 50 μM, 25% PBS buffer pH 7.4, 37 °C, end-point after 1 h incubation, cleavage ratio by UPLC–MS, two independent experiments. The method, then: (§2) For expression of D-peptidases, the recombinant strain E. coli BL21 carrying pET-28a-bogQ or pET-24a-triFpep was cultured overnight at 37 °C in LB medium. This was diluted 1:100 into 100 mL of LB medium containing 50 μg/mL kanamycin and incubated at 37 °C until OD600 = 0.4–0.6 was reached. The culture was incubated at 15 °C for 30 min, and isopropyl β-D-1-thiogalactopyranoside was added to a final concentration of 200 μM.[17] The target proteins purified using Ni-NTA purification. The assay mixture (total volume 30 μL in 25% PBS buffer, pH 7.4), containing purified protein (BogQ, 20 nM or TriFpep 200 nM) and synthetic analogues (50 μM), was incubated for 1 h (BogQ) or 24 h (TriFpep) at 37 °C. Reactions were quenched with three volumes of cold methanol (90 μL) and centrifuged at 15 000 rpm for 10 min to precipitate protein. The supernatant (2 μL) was subjected to UPLC–MS analysis for the determination of cleavage ratios.[17] Assays were repeated in two independent experiments and results consistent across both.

Data set [1] relates to TriFpep (peptidase domain of D-peptidase TriF). Nature of the data set: Peptide hydrolysis assay with TriFpep (UPLC–MS cleavage ratio). The following applies: Paenibacillus polymyxa; TriFpep 200 nM, substrate 50 μM, 25% PBS buffer pH 7.4, 37 °C, end-point after 24 h incubation, cleavage ratio by UPLC–MS, two independent experiments. The data set is classed as in vitro ADME, Paenibacillus polymyxa CICC10580. The method, then: Having determined that N- or α-methylation of position 9 in the tridecaptins substantially improves resistance to hydrolysis by BogQ, we next tested if modifying the 6 position could overcome TriF hydrolysis at D-Trp5. TriFpep, the soluble periplasmic peptidase domain of TriF, was used in these assays. […] Oct-TriA2(6-Sar) (20) and Oct-TriA2(6-Aib) (21) were synthesized and found to be completely resistant to TriF and retain strong activity (3.13 μg/mL) against E. coli. […] Discovering that a simple substitution of Ser6 with Sar or Aib provides complete TriF resistance with negligible loss in activity is a welcome development.
as §2, with “Reactions were quenched with three volumes of cold methanol (90 μL) and centrifuged at 15 000 rpm for 10 min to precipitate protein. The supernatant (2 μL) was subjected to UPLC–MS analysis for the determination of cleavage ratios.[17] Assays were repeated in two independent experiments and results consistent across both.” left out

A further data set concerns E. coli NCTC 12241. The data set is classed as cell-based, Escherichia coli. The following applies: NCTC 12241, 18 h. The method, then:
as §1

With `CCCCCCCC(=O)N[C@@H](C(=O)N[C@@H](CCN)C(=O)NCC(=O)N[C@H](CO)C(=O)N[C@H](Cc1c[nH]c2ccccc12)C(=O)N[C@@H](CO)C(=O)N[C@@H](CCN)C(=O)N[C@H](CCN)C(=O)N[C@@H](Cc1ccccc1)C(=O)N[C@@H](CCC(=O)O)C(=O)N[C@H](C(=O)N[C@@H](C(=O)N[C@@H](C)C(=O)O)C(C)C)C(C)C)C(C)C` [compound 14, Oct-TriA2 (2-Dab)] (Octanoyl-[dV][Dab]G[dS][dW]S[Dab][dDab]FEV[dV]A-OH), the “MIC (μg/mL) Sa” value against S. aureus NCTC 10788 was greater than 50 µg/mL.

As for `CCCCCCCC(=O)N[C@@H](C(=O)N[C@H](CCN)C(=O)NCC(=O)N[C@H](CO)C(=O)N[C@H](Cc1c[nH]c2ccccc12)C(=O)N[C@@H](CO)C(=O)N[C@@H](CCN)C(=O)N[C@H](CCN)C(=O)NC(C)(Cc1ccccc1)C(=O)N[C@@H](CCC(=O)O)C(=O)N[C@H](C(=O)N[C@@H](C(=O)N[C@@H](C)C(=O)O)C(C)C)C(C)C)C(C)C` (some centres unmarked) [compound 16, Oct-TriA2 (9-αMePhe)], in the data set with D-peptidase BogQ, the metabolised at 1 h, 50 μM is 39%. The “MIC (μg/mL) Sa” value against S. aureus NCTC 10788 was greater than 50 µg/mL.

With `CCCCCCCC(=O)N[C@@H](C(=O)N[C@H](CCN)C(=O)NCC(=O)N[C@H](CO)C(=O)N[C@H](Cc1c[nH]c2ccccc12)C(=O)N(C)CC(=O)N[C@@H](CCN)C(=O)N[C@H](CCN)C(=O)NC(C)(Cc1ccccc1)C(=O)N[C@@H](CCC(=O)O)C(=O)N[C@H](C(=O)N[C@@H](C(=O)N[C@@H](C)C(=O)O)C(C)C)C(C)C)C(C)C` (some centres unmarked) [compound 23, Oct-TriA2 (6-Sar, 9-αMePhe)], the metabolised at 24 h in data set [1] was 0%. For the same compound, the metabolised at 1 h, 50 μM in the data set with D-peptidase BogQ was determined as 39%. For the same compound, the “MIC (μg/mL) Sa” value in the data set on S. aureus NCTC 10788 is greater than 50 µg/mL. Besides, in the data set with E. coli NCTC 12241, the “MIC (μg/mL) Ec” value is greater than 50 µg/mL.

For the compound `CCCCCCCC(=O)N[C@@H](C(=O)N[C@H](CCN)C(=O)NCC(=O)N[C@H](CO)C(=O)N[C@H](Cc1c[nH]c2ccccc12)C(=O)N(C)CC(=O)N[C@@H](CCN)C(=O)N[C@H](CCN)C(=O)NC(C)(Cc1ccccc1)C(=O)N[C@@H](CCC(=O)O)C(=O)N[C@H](C(=O)N[C@@H](C(=O)N[C@@H](C)C(=O)O)[C@@H](C)CC)C(C)C)C(C)C` (some centres unmarked) [compound 25, Oct-TriA2 (6-Sar, 9-αMePhe)], the metabolised at 24 h in data set [1] was 0%. Further, the metabolised at 1 h, 50 μM in the data set on D-peptidase BogQ is 40%. In the data set with S. aureus NCTC 10788, the “MIC (μg/mL) Sa” value was greater than 50 µg/mL. For the same compound, the “MIC (μg/mL) Ec” value in the data set with E. coli NCTC 12241 was greater than 50 µg/mL.
